# Test results: ChEMBL document CHEMBL1201862, “PubChem BioAssay data set” (2004)
#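 Each compound was tested at five concentrations against cells in 96-well plates for 48 hours. GI50 marks 50% less growth.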 Activity calls are given as the source filed them. Cut-off read from the data, not from the text of the source: active = GI50 up to about 1.1 µM and inactive = higher.
# Assays:
# Test in all cases: NCI anticancer screen, dose series, 48 h
# U-251 = test system: U-251
# LOX IMVI = test system: LOX IMVI
# OVCAR-5 = test system: OVCAR-5
# Malme-3M = test system: Malme-3M
# MCF7 = test system: MCF7
# NCI/ADR-RES = test system: NCI/ADR-RES
# SNB-75 = test system: SNB-75
# SR = test system: SR
# RPMI-8226 = test system: RPMI-8226
# HCT-116 = test system: HCT-116
# OVCAR-8 = test system: OVCAR-8
# A549 = test system: A549
# SNB-19 = test system: SNB-19
# BT-549 = test system: BT-549
# SW-620 = test system: SW-620
# ACHN = test system: ACHN
# UACC-62 = test system: UACC-62
# SF-295 = test system: SF-295
# UO-31 = test system: UO-31
SMILES,GI50 (U-251),GI50 (LOX IMVI),GI50 (OVCAR-5),GI50 (Malme-3M),GI50 (MCF7),GI50 (NCI/ADR-RES),GI50 (SNB-75),GI50 (SR),GI50 (RPMI-8226),GI50 (HCT-116),GI50 (OVCAR-8),GI50 (A549),GI50 (SNB-19),GI50 (BT-549),GI50 (SW-620),GI50 (ACHN),GI50 (UACC-62),GI50 (SF-295),GI50 (UO-31)
CCN(CC)c1ccc2cc(-c3nnc(-c4ccccc4)o3)c(=O)oc2c1,11.3 µM (inactive),29.6 µM (inactive),56.2 µM (inactive),> 66.8 µM (inactive),22.5 µM (inactive),7.67 µM (inactive),24.3 µM (inactive),6.64 µM (inactive),12.1 µM (inactive),19.9 µM (inactive),28.1 µM (inactive),16.4 µM (inactive),25.9 µM (inactive),> 57.1 µM (inactive),30.5 µM (inactive),18.2 µM (inactive),36.6 µM (inactive),17.3 µM (inactive),19.1 µM (inactive)
Cc1ccc(C2=NOC(=O)[C@@H]3CCCC[C@@H]23)cc1,> 100 µM (inactive),> 100 µM (inactive),> 100 µM (inactive),> 100 µM (inactive),> 100 µM (inactive),> 100 µM (inactive),> 100 µM (inactive),> 100 µM (inactive),> 100 µM (inactive),> 100 µM (inactive),> 100 µM (inactive),> 10 µM (inactive),> 100 µM (inactive),> 100 µM (inactive),> 100 µM (inactive),> 100 µM (inactive),> 100 µM (inactive),> 100 µM (inactive),> 100 µM (inactive)
CC(=O)c1c2c(cc3c1CC1(Cc4cc5c(cc4C1=O)CCC5)C3)CCC2 (centres undefined),> 77.1 µM (inactive),38.3 µM (inactive),> 100 µM (inactive),39.1 µM (inactive),35.7 µM (inactive),22.5 µM (inactive),> 78 µM (inactive),6.64 µM (inactive),10.5 µM (inactive),9.12 µM (inactive),71.9 µM (inactive),42.2 µM (inactive),> 100 µM (inactive),27 µM (inactive),85.5 µM (inactive),> 68.7 µM (inactive),> 100 µM (inactive),42.5 µM (inactive),36.9 µM (inactive)
C=CCN1C(N)=C(C#N)C(C#N)(C#N)C1CCC (centres undefined),> 100 µM (inactive),> 100 µM (inactive),> 100 µM (inactive),> 100 µM (inactive),> 100 µM (inactive),> 100 µM (inactive),> 100 µM (inactive),> 100 µM (inactive),> 100 µM (inactive),> 100 µM (inactive),> 100 µM (inactive),> 100 µM (inactive),> 100 µM (inactive),> 100 µM (inactive),> 100 µM (inactive),> 100 µM (inactive),> 100 µM (inactive),> 100 µM (inactive),75.2 µM (inactive)
COc1ccccc1C[C@@H]1OC2(C=CC(=O)C=C2)O[C@H]1Cc1ccccc1OC,10.2 µM (inactive),6.14 µM (inactive),8.43 µM (inactive),9.71 µM (inactive),3.96 µM (inactive),8.38 µM (inactive),9.04 µM (inactive),1.78 µM (inactive),1.71 µM (inactive),1.09 µM (active),1.27 µM (inactive),21.7 µM (inactive),9.95 µM (inactive),2.64 µM (inactive),1.79 µM (inactive),7.89 µM (inactive),10.3 µM (inactive),11 µM (inactive),6.35 µM (inactive)
c1ccc(-c2c(-c3[nH]c4ccccc4c3-c3ccccc3)[nH]c3ccccc23)cc1,4.52 µM (inactive),1.92 µM (inactive),11.1 µM (inactive),13.7 µM (inactive),3.33 µM (inactive),3.72 µM (inactive),4.15 µM (inactive),2.74 µM (inactive),2.94 µM (inactive),4.06 µM (inactive),4.29 µM (inactive),3.5 µM (inactive),6.5 µM (inactive),4.56 µM (inactive),3.34 µM (inactive),3.33 µM (inactive),9.98 µM (inactive),4.18 µM (inactive),3.68 µM (inactive)
COc1ccc2c(-c3ccc(O)cc3)c(Oc3ccc(Cl)cc3)c(=O)oc2c1,6.15 µM (inactive),11.1 µM (inactive),4.89 µM (inactive),4.76 µM (inactive),3.63 µM (inactive),> 19.8 µM (inactive),13.2 µM (inactive),2.94 µM (inactive),3.99 µM (inactive),6.46 µM (inactive),> 34 µM (inactive),4.7 µM (inactive),3.89 µM (inactive),8.75 µM (inactive),5.35 µM (inactive),8.11 µM (inactive),4.98 µM (inactive),6.43 µM (inactive),1.14 µM (inactive)
C=C1c2nc3ccccc3n2C=C(c2ccc(OC)cc2)N1c1ccc(OC)cc1,9.71 µM (inactive),46.6 µM (inactive),65.5 µM (inactive),11 µM (inactive),22 µM (inactive),5.26 µM (inactive),5.61 µM (inactive),12.8 µM (inactive),29.4 µM (inactive),17.4 µM (inactive),7.24 µM (inactive),21.3 µM (inactive),4.25 µM (inactive),22.1 µM (inactive),37.8 µM (inactive),7.16 µM (inactive),16.1 µM (inactive),11.7 µM (inactive),12.5 µM (inactive)
O=C(O)c1ccccc1CC1Cc2ccc3c(c2C1=O)CCC3 (centres undefined),> 100 µM (inactive),> 100 µM (inactive),> 100 µM (inactive),> 100 µM (inactive),> 100 µM (inactive),> 100 µM (inactive),87.1 µM (inactive),> 100 µM (inactive),> 100 µM (inactive),> 100 µM (inactive),> 100 µM (inactive),> 100 µM (inactive),> 100 µM (inactive),> 100 µM (inactive),> 100 µM (inactive),> 100 µM (inactive),> 100 µM (inactive),> 100 µM (inactive),> 100 µM (inactive)
FC(F)(F)c1ccc2c(c1)nc(Cc1ccc(Cl)c(Cl)c1)n2CC1CCCN2CCCCC12 (centres undefined),23.1 µM (inactive),16.3 µM (inactive),17.4 µM (inactive),13.6 µM (inactive),17.5 µM (inactive),25.8 µM (inactive),28.6 µM (inactive),23.2 µM (inactive),57 µM (inactive),14.8 µM (inactive),35.8 µM (inactive),18.1 µM (inactive),18.9 µM (inactive),28.6 µM (inactive),34.8 µM (inactive),22.8 µM (inactive),15.9 µM (inactive),22.9 µM (inactive),0.169 µM (active)
Nc1ccc(-c2nc3cc(F)ccc3s2)cc1,39.4 µM (inactive),45.1 µM (inactive),26.4 µM (inactive),> 100 µM (inactive),< 0.01 µM (active),> 100 µM (inactive),11.2 µM (inactive),5.96 µM (inactive),> 100 µM (inactive),> 69.8 µM (inactive),> 95.9 µM (inactive),87.7 µM (inactive),> 100 µM (inactive),> 100 µM (inactive),> 100 µM (inactive),20.6 µM (inactive),28.6 µM (inactive),25.5 µM (inactive),> 60 µM (inactive)
